From patent US20060205031A1, “Newly identified cholinephosphotransferases and ethanolaminephosphotransferases” (1) Universiteit Utrecht Holding B.V., priority 2003, published 2006)

Legend:
[1] = molecular target: T1, human SMS1 (Homo sapiens, UniProt Q86VZ5); assay: SM synthase assay on lysates of SMS1-expressing yeast cells; assay type: biochemical; design: extent of inhibition of SMS1-mediated SM synthesis: dose or concentration left out as unconfirmed
T1 construct: members for which full-length cDNAs could be obtained were cloned into a yeast multicopy, GALL promotor plasmid; His tag (from vector pYES2.1/V5-His-TOPO) (C); made in house; host or cells: Saccharomyces cerevisiae strain IAY11 (unpurified post-nuclear lysate)
T1 sequence (Q86VZ5 1-413): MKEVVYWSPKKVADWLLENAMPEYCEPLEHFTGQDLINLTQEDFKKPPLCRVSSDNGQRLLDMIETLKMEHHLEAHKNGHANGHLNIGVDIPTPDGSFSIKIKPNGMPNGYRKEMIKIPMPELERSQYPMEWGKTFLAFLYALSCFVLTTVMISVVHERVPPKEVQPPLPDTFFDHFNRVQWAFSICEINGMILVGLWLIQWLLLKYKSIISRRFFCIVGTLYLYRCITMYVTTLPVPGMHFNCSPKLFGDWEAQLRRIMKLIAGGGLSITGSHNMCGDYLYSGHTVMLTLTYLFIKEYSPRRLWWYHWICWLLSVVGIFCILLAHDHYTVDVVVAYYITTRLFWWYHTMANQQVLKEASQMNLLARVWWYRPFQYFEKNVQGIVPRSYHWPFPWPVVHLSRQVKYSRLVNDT
Method: (§1) CSS-expressing yeast cells were lysed at 100 OD600/ml by bead bashing at 4° C. in RB1 buffer (120 mM K-glutamate, 15 mM KCl, 5 mM NaCl, 2 mM MnCl2, 2 mM MgCl2, 20 mM Hepes-KOH, pH 7.2) containing freshly added protease inhibitors (Holthuis et al., (1998).
(§2) Lysates were centrifuged at 700 g for 10 min at 4° C. and supernatants (0.25 ml per reaction) preincubated with NEM (1 mM) for 10 min at 37° C. The reaction was initiated by addition of 5 nmol of NBD-Cer in 0.1 ml RB1 buffer and incubation continued for 15 min. Lipids were extracted by addition of 1.7 ml chloroform:methanol (1:2.2), dried under N2 and subjected to butanol/water partitioning. Lipids recovered from the butanol phase were separated by one-dimensional TLC for 30 min in solvent I: chloroform/methanol/4.2 M NH4OH (9:7:3, v/v), followed by 30 min in solvent II: chloroform/methanol/acetic acid (45:30:7, v/v). Fluorescent images were recorded on a STORM 860 Imaging Analysis System (Molecular Dynamics, Sunnyvale, Calif.) and analysed with ImageQuant software.

[2] = molecular target: T2, human SMS2 (Homo sapiens, UniProt Q8NHU3); assay: SM synthase assay on lysates of SMS2-expressing yeast cells; assay type: biochemical
T2 construct: members for which full-length cDNAs could be obtained were cloned into a yeast multicopy, GALL promotor plasmid; His tag (from vector pYES2.1/V5-His-TOPO) (C); made in house; host or cells: Saccharomyces cerevisiae strain IAY11 (unpurified post-nuclear lysate)
T2 sequence (Q8NHU3 1-365): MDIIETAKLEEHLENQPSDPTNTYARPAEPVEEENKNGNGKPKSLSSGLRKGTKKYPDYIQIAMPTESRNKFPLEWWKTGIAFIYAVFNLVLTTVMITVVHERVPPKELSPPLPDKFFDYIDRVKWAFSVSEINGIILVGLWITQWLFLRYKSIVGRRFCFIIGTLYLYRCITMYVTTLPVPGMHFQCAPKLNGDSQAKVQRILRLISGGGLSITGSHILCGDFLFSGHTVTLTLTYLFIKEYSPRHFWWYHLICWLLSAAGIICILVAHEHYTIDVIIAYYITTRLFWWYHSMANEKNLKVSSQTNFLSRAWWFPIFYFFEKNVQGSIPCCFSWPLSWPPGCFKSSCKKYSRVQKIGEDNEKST
Method: as §1, §2

[3] = test system: Mammalian SM synthase; conditions: Luberto and Hannun, 1998; cited from earlier work
[4] = test system: yeast-associated SMase; assay: NBD-SM incubated with yeast cell lysates, TLC of reaction products; assay type: biochemical; conditions: NEM 1 mM, NBD-SM 1.8 μM, 30 min at 37° C.
Method: (§3) FIG. 3. NEM inhibits yeast-associated SMase but not mammalian SM synthase. (A) TLC separation of reaction products generated when NBD-SM (1.8 μM) was incubated with lysates of exponentially grown yeast cells (20 OD600 cells) in the presence (+) or absence (−) of N-ethylmaleimide (NEM; 1 mM). Reactions were in 0.35 ml RB1 buffer containing 1 μg/ml of IPC synthase inhibitor (aureobasidin A) and incubated for 30 min at 37° C. (B) TLC separation of reaction products generated when NBD-ceramide (NBD-Cer; […]) was incubated with lysates of HeLa cells (1/1: 2×10^6 cells; 1/4: 0.5×10^6 cells) in the presence (+) or absence (−) of NEM (1 mM). Reactions were in 0.35 ml PNS buffer, and incubated for 30 min at 37° C. Lipid extraction and TLC analysis were as described in Materials and methods.

[5] = test system: mammalian SM synthase; assay: NBD-ceramide incubated with HeLa cell lysates, TLC of reaction products; assay type: biochemical, human; conditions: NEM 1 mM, 30 min at 37° C.
Method: as §3

SMILES	inhibition of SM synthesis (in words) [1]	extent of inhibition of SMS1-mediated SM synthesis ([1]; D609)	inhibition of SM synthesis (in words) [2]	sensitivity of SMS2 to the drug relative to SMS1 [2]	sensitivity of mammalian SM synthase [3]	effect on yeast-associated SMases [4]	effect on mammalian SM synthase [5]
S=C([S-])OC1CC2CC1C1CCCC21.[K+] (stereo not shown) [D609, O-tricyclo[5.2.1.0^2,6]dec-9-yl dithiocarbonate potassium salt]	inhibited SM synthesis in a dose-dependent manner	50%	inhibited SM synthesis in a dose-dependent manner	two-fold less sensitive	sensitive	–	–
CCN1C(=O)C=CC1=O [NEM, N-ethylmaleimide]	–	–	–	–	–	potent inhibitor	does not affect
